{"source": "patent US7531195B2", "about": "“Schisandrin B preparation” (priority 2005, dated 2009)", "key": {"[1]": {"tested_on": "Isolated-Perfused Rat Heart", "experiment": "Myocardial ischemia-reperfusion injury (LDH leakage), isolated-perfused heart of old rats", "format": "in vivo", "conditions": "liposome-encapsulated, 10 mg/kg daily, 35 days", "description": "Aged male and female rats (˜12 months old) were administered with liposome-encapsulated (−) Schisandrin B in drinking water for 35 days, with the daily dose estimated to be 10 mg/kg.\nMale/Female adult Sprague-Dawley rats (˜12 months old) were maintained under a 12-h dark/light cycle at about 22° C. and allowed food and water ad libitum. Animals were randomly divided into groups, with at least 5 animals in each. In the pretreatment groups, rats were treated with liposome-encapsulated (−) Schisandrin B in drinking water for 35 days, with the estimated daily dose of 10 mg/kg. Control animals received empty liposomes-containing drinking water. Twenty-four hours following the last dosing, hearts were isolated from control or drug-pretreated rats and then subjected to Langendorff perfusion as described below.\nThe heart was excised quickly and immediately immersed in ice-cold and heparinized (50 unit/ml) saline. The aorta was cannulated and then transferred to a warm and moistured chamber of the perfusion apparatus. The heart was retrogradely perfused according to Langendorff method as described (Yim and Ko 1999).\nAfter an initial 30-min of perfusion for equilibration, the isolated heart was subjected to a 40-min period of ‘no-flow’ global ischemia followed by 20 min of reperfusion. Coronary effluent was collected in 1-min fractions at increasing time intervals during the course of equilibration and reperfusion. The fractions were immediately put on ice until assay for lactate dehydrogenase (LDH) activity. The extent of LDH leakage during the reperfusion period, an indirect index of myocardial injury, was estimated by computing the area under the curve of the graph plotting the percent LDH activity (with respect to the mean pre-ischemic value measured during the equilibration period) against the reperfusion time (1-20 min), as described (Yim and Ko 1999). Immediately after the I-R procedure, heart ventricular tissue samples were obtained for biochemical analysis."}, "[2]": {"tested_on": "mitochondria of brain, heart, liver and skeletal muscle", "experiment": "Mitochondrial antioxidant components in tissues of young adult and middle-aged rats", "format": "in vivo, rat", "conditions": "10 mg/kg/day x 15, range among tissues", "description": "(§1) Young adult (8-10 week-old) and middle-aged (12-14 month-old retired breeder) female Sprague-Dawley rats were maintained under a 12-h dark/light cycle at about 22° C. and allowed food and water ad libitum. Experimental protocols were approved by the Research Practice Committee at the Hong Kong University of Science & Technology, Hong Kong. Animals were randomly divided into groups, with 5 animals in each. In the treatment groups, rats were intragastrically administered with Sch B (dissolved/suspended in olive oil) at a daily dose of 10 mg/kg for 15 days. The daily dose is approximated to 1.14 mg/kg for humans after adjusting the inter-species difference in drug distribution in the body. Untreated control animals received olive oil only. Twenty-four hours after the last dosing, animals were sacrificed by decapitation and the whole brain, heart ventricular, liver and skeletal muscle (hind limb) tissues were excised and subjected to biochemical analysis. To investigate the effect of (−) Sch B on myocardial ischemia-reperfusion (1-R) injury, rats were intragastrically administered with (−) Sch B at a daily dose of 10 mg/kg for 35 days. Untreated control animals received olive oil only. Twenty-four hours after the last dosing, hearts were isolated from pentobarbital-anesthetized animals and subjected to I-R experiment.\nMitochondrial pellets were prepared from tissue homogenates by centrifugation at 800×g at 4° C. for 30 min, with purity being determined by measuring the relative specific activities of succinate dehydrogenase and lactate dehydrogenase (LDH) in the supernatant and mitochondrial pellet. Mitochondrial pellets were then resuspended in 1 ml of the respective homogenizing buffer used for various tissues and constituted the mitochondrial fractions. The protein concentration of mitochondrial fractions was determined using a Bio-Rad protein assay kit.\nAliquots (200 μl) of mitochondrial fractions were used for measuring mitochondrial glutathione (GSH) and α-tocopherol (α-TOC) levels by an enzymatic method and HPLC method, respectively, using GSH and α-TOC as standards. Se-glutathione peroxidase (GPX) activity was measured. Mn-superoxide dismutase (SOD) activity was measured by monitoring the […] of cytochrome c caused by superoxide radicals generated from the xanthine oxidase-xanthine reaction."}, "[3]": {"tested_on": "mitochondria of brain, heart, liver and skeletal muscle", "experiment": "Ca2+-induced mitochondrial permeability transition (MPT) in tissues of young adult and middle-aged rats", "format": "in vivo, rat", "description": "as §1, with “To investigate the effect of (−) Sch B on myocardial ischemia-reperfusion (1-R) injury, rats were intragastrically administered with (−) Sch B at a daily dose of 10 mg/kg for 35 days. Untreated control animals received olive oil only. Twenty-four hours after the last dosing, hearts were isolated from pentobarbital-anesthetized animals and subjected to I-R experiment.” left out\nTissue homogenates were prepared as described above. […] An aliquot (1.6 ml) of mitochondrial sample (0.5 mg protein/ml) was prepared by mixing mitochondrial fraction with incubation buffer (125 mM sucrose, 65 mM KCl, 10 mM Hepes, pH 7.2, 5 mM succinate (freshly prepared) and 5 μM rotenone (freshly prepared). Aliquots (200 μl) of mitochondrial sample were mixed with 10 μl of cyclosporin A (5 μM in 0.5% ethanol final concentration) or incubation buffer. The mixtures were incubated at 30° C. for 5 min. An aliquot (10 μl) of calcium chloride solution (1 μM final concentration) was then added, and the mixtures were incubated at 30° C. for 5 min. Aliquots (180 μl) of the mixtures were added into 96-well micro-titer plate, and the initial absorbance of the mixtures at 520 nm was monitored for 5 min at 30° C. The swelling reaction was then started by adding 20 μl of K3PO4 (0.5 mM, pH 7.2), and the absorbance at 520 nm of the reaction mixtures was read every 2 min for 30 min at 30° C., using Victor V^2 Multi-Label Counter. […]"}}, "note": "Marks after values point to notes of the source that are not given here.", "data": [{"smiles": "COc1cc2c(c(OC)c1OC)-c1c(cc3c(c1OC)OCO3)CC(C)C(C)C2", "note": "(single isomer, unassigned; (-)) [(−) Sch B, (−) Schisandrin B]", "values": [{"measurement": "LDH Leakage", "setting": "[1]; I-R, old female", "value": "4534 ± 86.5^b AU"}, {"measurement": "LDH Leakage, percent protection vs unpretreated control", "setting": "[1]; I-R, old female", "value": "(56%)"}, {"measurement": "LDH Leakage", "setting": "[1]; I-R, old male", "value": "2426 ± 219^a AU"}, {"measurement": "LDH Leakage, percent protection vs unpretreated control", "setting": "[1]; I-R, old male", "value": "(62%)"}, {"measurement": "LDH Leakage", "setting": "[1]; NON-I-R, old female", "value": "611 ± 49.7", "unit": "AU"}, {"measurement": "LDH Leakage", "setting": "[1]; NON-I-R, old male", "value": "570 ± 66.8", "unit": "AU"}, {"measurement": "extent of stimulation of mitochondrial GPX activity", "setting": "[2]", "value": "21-41%"}, {"measurement": "extent of stimulation of mitochondrial GSH level", "setting": "[2]", "value": "21-29%"}, {"measurement": "extent of stimulation of mitochondrial SOD activity", "setting": "[2]", "value": "19-34%"}, {"measurement": "extent of stimulation of mitochondrial α-TOC level", "setting": "[2]", "value": "19-34%"}, {"measurement": "extent of inhibition of sensitivity to Ca2+-induced MPT", "setting": "[3]; middle-aged rats, all tissues except liver, range among tissues", "value": "15-29%"}, {"measurement": "sensitivity to Ca2+-induced MPT in liver", "setting": "[3]; middle-aged rats, liver", "value": "did not show detectable change"}, {"measurement": "decrease of sensitivity to Ca2+-induced MPT", "setting": "[3]; young adult rat tissues, 10 mg/kg/day x 15, range among tissues", "value": "15-48%"}]}]}
